In brackets after ≈: the same amount, converted by molar mass.
Assays:
[1] = tested on: B. anthracis Sterne 105; assay type: cell-based, Bacillus anthracis; settings: Tween 80 0.002% medium, serum condition not stated
[2] = tested on: methicillin-susceptible S. aureus (MSSA, 22); assay: MIC broth microdilution, MSSA; settings: for MIC50 / MIC90: Staphylococcus aureus, MSSA; for MIC 50% / MIC 90%: MSSA (22)
[3] = tested on: methicillin-resistant S. aureus (MRSA, 22); assay: MIC broth microdilution, MRSA; settings: for MIC50 / MIC90: Staphylococcus aureus, MRSA; for MIC 50% / MIC 90%: MRSA (22)
[4] = tested on: Staphylococcus epidermidis (43 strains); assay: MIC broth microdilution, S. epidermidis; settings: for MIC50 / MIC90: Staphylococcus epidermidis; for MIC 50% / MIC 90%: S. epidermidis (43)
[5] = tested on: VanA vancomycin-resistant E. faecium (10); assay: MIC broth microdilution, VanA E. faecium; settings: for MIC50 / MIC90: Enterococcus faecium; for MIC 50% / MIC 90%: E. faecium, VanA (10)
[6] = tested on: VanB vancomycin-resistant E. faecium (10); assay: MIC broth microdilution, VanB E. faecium; settings: for MIC50 / MIC90: Enterococcus faecium; for MIC 50% / MIC 90%: E. faecium, VanB (10)
[7] = tested on: VanA vancomycin-resistant E. faecalis (11); assay: MIC broth microdilution, VanA E. faecalis; settings: for MIC50 / MIC90: Enterococcus faecalis; for MIC 50% / MIC 90%: E. faecalis, VanA (11)
[8] = tested on: VanB vancomycin-resistant E. faecalis (12); assay: MIC broth microdilution, VanB E. faecalis; settings: for MIC50 / MIC90: Enterococcus faecalis; for MIC 50% / MIC 90%: E. faecalis, VanB (12)
[9] = tested on: Staphylococcus aureus (65 strains); assay: MIC broth microdilution, S. aureus all isolates; settings: for MIC50 / MIC90: Staphylococcus aureus; for MIC 50% / MIC 90%: S. aureus (65), all resistance subsets
[10] = tested on: VanC enterococci (22); assay: MIC broth microdilution, vanC-carrying enterococci; settings: for MIC 50% / MIC 90%: VanC enterococci (22)
[11] = tested on: vancomycin-susceptible E. faecium (21); assay: MIC broth microdilution, vancomycin-susceptible E. faecium; settings: for MIC50 / MIC90: Enterococcus faecium; for MIC 50% / MIC 90%: E. faecium, vancomycin-susceptible (21)
[12] = tested on: vancomycin-susceptible E. faecalis (23); assay: MIC broth microdilution, vancomycin-susceptible E. faecalis; settings: for MIC50 / MIC90: Enterococcus faecalis; for MIC 50% / MIC 90%: E. faecalis, vancomycin-susceptible (23)
[13] = tested on: E. faecalis; assay: MIC broth microdilution, E. faecalis regardless of vancomycin susceptibility; settings: Enterococcus faecalis
[14] = tested on: vancomycin-intermediate S. aureus (VISA, 5); assay: MIC broth microdilution, VISA
[15] = tested on: vancomycin-resistant S. aureus (VRSA, 6); assay: MIC broth microdilution, VRSA
[16] = tested on: heterogeneous VISA (hVISA, 10); assay: MIC broth microdilution, hVISA
[17] = tested on: S. pneumoniae (22); assay: MIC broth microdilution, S. pneumoniae; settings: S. pneumoniae (22); MHB + lysed horse blood
[18] = tested on: S. aureus ATCC 25923; assay: Neutropenic murine thigh infection model; settings: for AUCc-t (AUC difference between control and treated animals): 24 h time kill
[19] = tested on: β-hemolytic streptococci (23); assay: MIC broth microdilution, β-hemolytic streptococci; settings: β-hemolytic streptococci (23); MHB + lysed horse blood
[20] = 1 mg/kg single intraperitoneal dose
[21] = 4 mg/kg single intraperitoneal dose
[22] = 16 mg/kg single intraperitoneal dose

## CNC(CC(C)C)C(=O)NC1C(=O)NC(CC(N)=O)C(=O)NC2C(=O)NC3C(=O)NC(C(=O)NC(C(=O)NCCOCCOCCOCCN(C)C)c4cc(O)c(CNCCOCCOCCOCCN(C)C)c(O)c4-c4cc3ccc4O)C(O)c3ccc(c(Cl)c3)Oc3cc2cc(c3OC2OC(CO)C(O)C(O)C2OC2CC(C)(NCc3ccc(-c4ccc(Cl)cc4)cc3)C(O)C(C)O2)Oc2ccc(cc2Cl)C1O (centres unmarked) [Compound 23]
[1]
  MIC: 0.12 µg/mL (≈ 0.0576 µM)

## CC(=O)NC[C@H]1CN(c2ccc(N3CCOCC3)c(F)c2)C(=O)O1 [Linezolid, reference compound]
[2]
  MIC50: 1 µg/mL (≈ 2.96 µM)
  MIC90: 1 µg/mL (≈ 2.96 µM)
[3]
  MIC50: 1 µg/mL (≈ 2.96 µM)
  MIC90: 1 µg/mL (≈ 2.96 µM)
[4]
  MIC50: 0.5 µg/mL (≈ 1.48 µM)
  MIC90: 1 µg/mL (≈ 2.96 µM)
[5]
  MIC50: 1 µg/mL (≈ 2.96 µM)
  MIC90: 1 µg/mL (≈ 2.96 µM)
[6]
  MIC50: 1 µg/mL (≈ 2.96 µM)
  MIC90: 1 µg/mL (≈ 2.96 µM)
[7]
  MIC50: 1 µg/mL (≈ 2.96 µM)
  MIC90: 1 µg/mL (≈ 2.96 µM)
[8]
  MIC50: 1 µg/mL (≈ 2.96 µM)
  MIC90: 1 µg/mL (≈ 2.96 µM)
[9]
  MIC50: 1 µg/mL (≈ 2.96 µM)
  MIC90: 1 µg/mL (≈ 2.96 µM)
[10]
  MIC50: 1 µg/mL (≈ 2.96 µM)
  MIC90: 2 µg/mL (≈ 5.93 µM)
[11]
  MIC50: 1 µg/mL (≈ 2.96 µM)
  MIC90: 2 µg/mL (≈ 5.93 µM)
[12]
  MIC50: 1 µg/mL (≈ 2.96 µM)
  MIC90: 1 µg/mL (≈ 2.96 µM)
[13]
  MIC50: 1 µg/mL (≈ 2.96 µM)
  MIC90: 1 µg/mL (≈ 2.96 µM)

## CCCCCCCCCC(=O)N[C@@H](Cc1c[nH]c2ccccc12)C(=O)N[C@H](CC(N)=O)C(=O)N[C@@H](CC(=O)O)C(=O)N[C@@H]1C(=O)NCC(=O)N[C@@H](CCCN)C(=O)N[C@@H](CC(=O)O)C(=O)N[C@H](C)C(=O)N[C@@H](CC(=O)O)C(=O)NCC(=O)N[C@H](CO)C(=O)N[C@@H]([C@H](C)CC(=O)O)C(=O)N[C@@H](CC(=O)c2ccccc2N)C(=O)O[C@@H]1C [Daptomycin, reference compound]
[2]
  MIC50: 0.25 µg/mL (≈ 0.154 µM)
  MIC90: 0.5 µg/mL (≈ 0.309 µM)
[3]
  MIC50: 0.25 µg/mL (≈ 0.154 µM)
  MIC90: 0.5 µg/mL (≈ 0.309 µM)
[4]
  MIC50: 0.25 µg/mL (≈ 0.154 µM)
  MIC90: 0.5 µg/mL (≈ 0.309 µM)
[5]
  MIC50: 2 µg/mL (≈ 1.23 µM)
  MIC90: 2 µg/mL (≈ 1.23 µM)
[6]
  MIC50: 2 µg/mL (≈ 1.23 µM)
  MIC90: 2 µg/mL (≈ 1.23 µM)
[7]
  MIC50: 1 µg/mL (≈ 0.617 µM)
  MIC90: 2 µg/mL (≈ 1.23 µM)
[8]
  MIC50: 0.5 µg/mL (≈ 0.309 µM)
  MIC90: 1 µg/mL (≈ 0.617 µM)
[9]
  MIC50: 0.25 µg/mL (≈ 0.154 µM)
  MIC90: 1 µg/mL (≈ 0.617 µM)
[10]
  MIC50: 1 µg/mL (≈ 0.617 µM)
  MIC90: 2 µg/mL (≈ 1.23 µM)
[11]
  MIC50: 2 µg/mL (≈ 1.23 µM)
  MIC90: 2 µg/mL (≈ 1.23 µM)
[12]
  MIC50: 1 µg/mL (≈ 0.617 µM)
  MIC90: 2 µg/mL (≈ 1.23 µM)
[13]
  MIC50: 0.5 to 1 µg/mL (≈ 0.309 to 0.617 µM)
  MIC90: 1 to 2 µg/mL (≈ 0.617 to 1.23 µM)

## CNC(CC(C)C)C(=O)NC1C(=O)NC(CC(N)=O)C(=O)NC2C(=O)NC3C(=O)NC(C(=O)NC(C(=O)O)c4cc(O)c(CNCCOCCOCCN)c(O)c4-c4cc3ccc4O)C(O)c3ccc(c(Cl)c3)Oc3cc2cc(c3OC2OC(CO)C(O)C(O)C2OC2CC(C)(NCc3ccc(-c4ccc(Cl)cc4)cc3)C(O)C(C)O2)Oc2ccc(cc2Cl)C1O (centres unmarked) [Compound 11]
[2]
  MIC 50%: 0.12 µg/mL (≈ 0.0663 µM)
  MIC 90%: 0.12 µg/mL (≈ 0.0663 µM)
[3]
  MIC 50%: 0.12 µg/mL (≈ 0.0663 µM)
  MIC 90%: 0.12 µg/mL (≈ 0.0663 µM)
[14]
  MIC 50%: 0.25 µg/mL (≈ 0.138 µM)
[15]
  MIC 50%: 4 µg/mL (≈ 2.21 µM)
[16]
  MIC 50%: 0.12 µg/mL (≈ 0.0663 µM)
  MIC 90%: 0.12 µg/mL (≈ 0.0663 µM)
[17]
  MIC 50%: 0.06 µg/mL
  MIC 90%: 0.06 µg/mL
[4]
  MIC 50%: 0.06 µg/mL (≈ 0.0331 µM)
  MIC 90%: 0.06 µg/mL (≈ 0.0331 µM)
[5]
  MIC 50%: 2 µg/mL (≈ 1.1 µM)
  MIC 90%: 4 µg/mL (≈ 2.21 µM)
[6]
  MIC 50%: 0.06 µg/mL (≈ 0.0331 µM)
  MIC 90%: 0.12 µg/mL (≈ 0.0663 µM)
[18]; [20]
  Max Kill (maximum decrease from initial infection level): 0.59 Log10 CFU/thigh
  AUCc-t (AUC difference between control and treated animals): 12.9 (Log10 CFU/thigh)/hr
[18]; [21]
  Max Kill (maximum decrease from initial infection level): 0.46 Log10 CFU/thigh
  AUCc-t (AUC difference between control and treated animals): 10.8 (Log10 CFU/thigh)/hr
[18]; [22]
  Max Kill (maximum decrease from initial infection level): −0.39 Log10 CFU/thigh
  AUCc-t (AUC difference between control and treated animals): 34.7 (Log10 CFU/thigh)/hr
[7]
  MIC 50%: 4 µg/mL (≈ 2.21 µM)
  MIC 90%: 8 µg/mL (≈ 4.42 µM)
[8]
  MIC 50%: 0.25 µg/mL (≈ 0.138 µM)
  MIC 90%: 0.25 µg/mL (≈ 0.138 µM)
[9]
  MIC 50%: 0.12 µg/mL (≈ 0.0663 µM)
  MIC 90%: 0.5 µg/mL (≈ 0.276 µM)
[19]
  MIC 50%: 0.06 µg/mL
  MIC 90%: 0.12 µg/mL
[10]
  MIC 50%: 0.25 µg/mL (≈ 0.138 µM)
  MIC 90%: 0.5 µg/mL (≈ 0.276 µM)
[11]
  MIC 50%: 0.06 µg/mL (≈ 0.0331 µM)
  MIC 90%: 0.12 µg/mL (≈ 0.0663 µM)
[12]
  MIC 50%: 0.25 µg/mL (≈ 0.138 µM)
  MIC 90%: 0.25 µg/mL (≈ 0.138 µM)

## CNC(CC(C)C)C(=O)NC1C(=O)NC(CC(N)=O)C(=O)NC2C(=O)NC3C(=O)NC(C(=O)NC(C(=O)NCCOCCOCCOCCN)c4cc(O)c(CNCCOCCOCCOCCN)c(O)c4-c4cc3ccc4O)C(O)c3ccc(c(Cl)c3)Oc3cc2cc(c3OC2OC(CO)C(O)C(O)C2OC2CC(C)(NCc3ccc(-c4ccc(Cl)cc4)cc3)C(O)C(C)O2)Oc2ccc(cc2Cl)C1O (centres unmarked) [Compound 24]
[1]
  MIC: 0.03 µg/mL (≈ 0.0148 µM)

## CNC(CC(C)C)C(=O)NC1C(=O)NC(CC(N)=O)C(=O)NC2C(=O)NC3C(=O)NC(C(=O)NC(C(=O)O)c4cc(O)c(CNCCOCCOCC[N+](C)(C)C)c(O)c4-c4cc3ccc4O)C(O)c3ccc(c(Cl)c3)Oc3cc2cc(c3OC2OC(CO)C(O)C(O)C2OC2CC(C)(NCc3ccc(-c4ccc(Cl)cc4)cc3)C(O)C(C)O2)Oc2ccc(cc2Cl)C1O (centres unmarked) [Compound 13]
[2]
  MIC 50%: 0.12 µg/mL
  MIC 90%: 0.25 µg/mL
[3]
  MIC 50%: 0.12 µg/mL
  MIC 90%: 0.12 µg/mL
[14]
  MIC 50%: 0.5 µg/mL
[15]
  MIC 50%: 8 µg/mL
[16]
  MIC 50%: 0.12 µg/mL
  MIC 90%: 0.12 µg/mL
[17]
  MIC 50%: 0.06 µg/mL
  MIC 90%: 0.12 µg/mL
[4]
  MIC 50%: 0.12 µg/mL
  MIC 90%: 0.12 µg/mL
[5]
  MIC 50%: 2 µg/mL
  MIC 90%: 4 µg/mL
[6]
  MIC 50%: 0.12 µg/mL
  MIC 90%: 0.12 µg/mL
[18]; [20]
  Max Kill (maximum decrease from initial infection level): 0.9 Log10 CFU/thigh
  AUCc-t (AUC difference between control and treated animals): 12.6 (Log10 CFU/thigh)/hr
[18]; [21]
  Max Kill (maximum decrease from initial infection level): 0.28 Log10 CFU/thigh
  AUCc-t (AUC difference between control and treated animals): 20.6 (Log10 CFU/thigh)/hr
[18]; [22]
  Max Kill (maximum decrease from initial infection level): 0.02 Log10 CFU/thigh
  AUCc-t (AUC difference between control and treated animals): 29.5 (Log10 CFU/thigh)/hr
[7]
  MIC 50%: 8 µg/mL
  MIC 90%: 16 µg/mL
[8]
  MIC 50%: 0.25 µg/mL
  MIC 90%: 0.5 µg/mL
[9]
  MIC 50%: 0.12 µg/mL
  MIC 90%: 0.5 µg/mL
[19]
  MIC 50%: 0.06 µg/mL
  MIC 90%: 0.06 µg/mL
[10]
  MIC 50%: 0.25 µg/mL
  MIC 90%: 1 µg/mL
[11]
  MIC 50%: 0.12 µg/mL
  MIC 90%: 0.12 µg/mL
[12]
  MIC 50%: 0.25 µg/mL
  MIC 90%: 0.25 µg/mL

Reference: patent US20140171357A1, “VANCOMYCIN DERIVATIVES” (Seachald Pharmaceuticals, Inc., priority 2011, published 2014)
